This is an account of results in patent US20260015358A1, “BICYCLIC DERIVATIVES, COMPOSITIONS AND USES THEREOF” (Danatlas Pharmaceuticals Co., Ltd., priority 2023, published 2026).

For orientation: pIC50 means the negative decadic logarithm of the IC50, by convention in mol/L.

Assay [1] addresses T1, WRN [UniPro: Q14191 (WRN_HUMAN), N500-C946] (Homo sapiens (Human), UniProt Q14191). As to the kind of experiment: WRN ATPase assay (ADP-Glo). Format: biochemical. The note with it: WRN enzymatic activity assay. Background: ADP-Glo turns the ADP formed in a reaction into a luminescent signal.
Assay [2] has as its target T1, WRN [UniPro: Q14191 (WRN_HUMAN), N500-C946]. As to the kind of experiment: WRN unwinding assay (FORKF DNA, fluorescence). Type of assay: biochemical. The note with it: Table 14.

pIC50: −log10 of the molar value.

T1 sequence (Q14191 500-946): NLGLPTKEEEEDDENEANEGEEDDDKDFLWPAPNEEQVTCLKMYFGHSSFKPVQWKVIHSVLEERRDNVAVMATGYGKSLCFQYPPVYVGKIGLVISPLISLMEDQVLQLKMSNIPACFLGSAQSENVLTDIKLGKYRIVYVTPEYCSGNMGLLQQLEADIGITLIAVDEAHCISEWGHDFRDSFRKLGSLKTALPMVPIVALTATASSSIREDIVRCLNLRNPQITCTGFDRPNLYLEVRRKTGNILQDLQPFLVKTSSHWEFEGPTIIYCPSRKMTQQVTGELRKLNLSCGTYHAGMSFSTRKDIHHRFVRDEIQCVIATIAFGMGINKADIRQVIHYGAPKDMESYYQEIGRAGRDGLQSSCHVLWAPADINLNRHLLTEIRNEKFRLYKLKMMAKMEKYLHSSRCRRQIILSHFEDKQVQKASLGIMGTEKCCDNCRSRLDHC

Take `CCc1c(N2CCN(C(=O)CNC(=O)c3ccns3)CC2)c(=O)n2nc(C3=CCOCC3)nc2n1CC(=O)Nc1ccc(C(F)(F)F)cc1Cl` [Example 369, N-(2-(4-(4-(2-((2-Chloro-4-(trifluoromethyl)phenyl)amino)-2-oxoethyl)-2-(3,6-dihydro-2H-pyran-4-yl)-5-ethyl-7-oxo-4,7-dihydro-[1,2,4]triazolo[1,5-a]pyrimidin-6-yl)piperazin-1-yl)-2-oxoethyl) isothiazole-5-carboxamide]: the negative-log IC50 (pIC50) in assay [1] and in assay [2] was over 7.00 each time.

On to `CCc1c(N2CCN(C(=O)CNC(=O)NCc3ccccc3)CC2)c(=O)n2nc(C3=CCOCC3)nc2n1CC(=O)Nc1ccc(C(F)(F)F)cc1Cl` [Example 183, 2-(6-(4-((Benzylcarbamoyl)glycyl)piperazin-1-yl)-2-(3,6-dihydro-2H-pyran-4-yl)-5-ethyl-7-oxo-[1,2,4]triazolo[1,5-a]pyrimidin-4(7H)-yl)-N-(2-chloro-4-(trifluoromethyl)phenyl)acetamide], for which the negative-log IC50 (pIC50) in assay [1] and in assay [2] was over 7.00 in each case.

Turning to `CCc1c(N2CCN(C(=O)CNC(=O)c3nc(N)ccc3F)CC2)c(=O)n2nc(C3=CCOCC3)nc2n1CC(=O)Nc1ccc(C(F)(F)F)cc1Cl` [Example 367, 6-Amino-N-(2-(4-(4-(2-((2-chloro-4-(trifluoromethyl)phenyl)amino)-2-oxoethyl)-2-(3,6-dihydro-2H-pyran-4-yl)-5-ethyl-7-oxo-4,7-dihydro-[1,2,4]triazolo[1,5-a]pyrimidin-6-yl)piperazin-1-yl)-2-oxoethyl)-3-fluoropicolinamide], the negative-log IC50 (pIC50) in assay [1] and in assay [2] was over 7.00 throughout.

For the compound `CCc1c(N2CCN(C(=O)CNC(=O)c3cccc(=O)[nH]3)CC2)c(=O)n2nc(C3=CCOCC3)nc2n1CC(=O)Nc1ccc(C(F)(F)F)cc1Cl` [Example 366, N-(2-(4-(4-(2-((2-Chloro-4-(trifluoromethyl)phenyl)amino)-2-oxoethyl)-2-(3,6-dihydro-2H-pyran-4-yl)-5-ethyl-7-oxo-4,7-dihydro-[1,2,4]triazolo[1,5-a]pyrimidin-6-yl)piperazin-1-yl)-2-oxoethyl)-6-oxo-1,6-dihydropyridine-2-carboxamide], the negative-log IC50 (pIC50) in assay [1] and in assay [2] was over 7.00 throughout.

In the case of `CCc1c(N2CCN(C(=O)CNC(=O)c3c(F)cccc3Cl)CC2)c(=O)n2nc(C3=CCOCC3)nc2n1CC(=O)Nc1ccc(C(F)(F)F)cc1Cl` [Example 319, 2-Chloro-N-(2-(4-(4-(2-((2-chloro-4-(trifluoromethyl)phenyl)amino)-2-oxoethyl)-2-(3,6-dihydro-2H-pyran-4-yl)-5-ethyl-7-oxo-4,7-dihydro-[1,2,4]triazolo[1,5-a]pyrimidin-6-yl)piperazin-1-yl)-2-oxoethyl)-6-fluorobenzamide], the negative logarithm of the IC50 (pIC50) in assay [1] and in assay [2] was over 7.00 each time.

For the compound `CCc1c(N2CCN(C(=O)CNC(=O)c3nccs3)CC2)c(=O)n2nc(N3CCOCC3)nc2n1CC(=O)Nc1ccc(C(F)(F)F)cc1Cl` [Example 248, N-(2-(4-(4-(2-((2-Chloro-4-(trifluoromethyl)phenyl)amino)-2-oxoethyl)-5-ethyl-2-morpholino-7-oxo-4,7-dihydro-[1,2,4]triazolo[1,5-a]pyrimidin-6-yl)piperazin-1-yl)-2-oxoethyl)thiazole-2-carboxamide], the pIC50 in assay [1] and in assay [2] was over 7.00 in each case.

For `CCc1c(N2CCN(S(=O)(=O)CC)CC2)c(=O)n2nc(C3=CCOCC3)nc2n1CC(=O)Nc1ccc(C(F)(F)F)cc1Cl` [Example 11, N-(2-Chloro-4-(trifluoromethyl)phenyl)-2-(2-(3,6-dihydro-2H-pyran-4-yl)-5-ethyl-6-(4-(ethylsulfonyl)piperazin-1-yl)-7-oxo-[1,2,4]triazolo[1,5-a]pyrimidin-4(7H)-yl)acetamide], the negative logarithm of the IC50 (pIC50) was 6.00 to 7.00 in assay [1] and under 6.00 in assay [2].

With `CCc1c(N2CCN(C(=O)c3cnn4ccnc4c3O)CC2)c(=O)n2nc(C3=CCOCC3)nc2n1CC(=O)Nc1ccc(C(F)(F)F)cc1Cl` [Example 206, N-(2-Chloro-4-(trifluoromethyl)phenyl)-2-(2-(3,6-dihydro-2H-pyran-4-yl)-5-ethyl-6-(4-(8-hydroxyimidazo[1,2-b]pyridazine-7-carbonyl)piperazin-1-yl)-7-oxo-[1,2,4]triazolo[1,5-a]pyrimidin-4(7H)-yl)acetamide], the negative-log IC50 (pIC50) in assay [1] and in assay [2] was over 7.00 throughout.

On to `CCc1c(N2CCN(C(=O)CNC(=O)c3ccccc3F)CC2)c(=O)n2nc(C3=CCOCC3)nc2n1CC(=O)Nc1ccc(C(F)(F)F)nc1Cl` [Example 163, N-(2-(4-(4-(2-((2-Chloro-6-(trifluoromethyl)pyridin-3-yl)amino)-2-oxoethyl)-2-(3,6-dihydro-2H-pyran-4-yl)-5-ethyl-7-oxo-4,7-dihydro-[1,2,4]triazolo[1,5-a]pyrimidin-6-yl)piperazin-1-yl)-2-oxoethyl)-2-fluorobenzamide], for which the pIC50 in assay [1] and in assay [2] was over 7.00 each time.

For `CCc1c(N2CCN(C(=O)c3c(O)nn4ccccc34)CC2)c(=O)n2nc(C3=CCOCC3)nc2n1CC(=O)Nc1ccc(C(F)(F)F)cc1Cl` [Example 304, N-(2-Chloro-4-(trifluoromethyl)phenyl)-2-(2-(3,6-dihydro-2H-pyran-4-yl)-5-ethyl-6-(4-(2-hydroxypyrazolo[1,5-a]pyridine-3-carbonyl)piperazin-1-yl)-7-oxo-[1,2,4]triazolo[1,5-a]pyrimidin-4(7H)-yl) acetamide], the pIC50 in assay [1] and in assay [2] was over 7.00 in each case.

Consider `CCc1c(N2CCN(C(=O)c3nccc4[nH]ccc34)CC2)c(=O)n2nc(C3=CCOCC3)nc2n1CC(=O)Nc1ccc(Cl)cc1C(F)(F)F` [Example 67, 2-(6-(4-(1H-Pyrrolo[3,2-c]pyridine-4-carbonyl)piperazin-1-yl)-2-(3,6-dihydro-2H-pyran-4-yl)-5-ethyl-7-oxo-[1,2,4]triazolo[1,5-a]pyrimidin-4(7H)-yl)-N-(4-chloro-2-(trifluoromethyl)phenyl)acetamide], for which the negative logarithm of the IC50 (pIC50) in assay [1] and in assay [2] was over 7.00 in each case.

`CCc1c(N2CCN(C(=O)C(=O)NOCc3ccccc3)CC2)c(=O)n2nc(C3=CCOCC3)nc2n1CC(=O)Nc1ccc(C(F)(F)F)cc1Cl` [Example 337, N-(Benzyloxy)-2-(4-(4-(2-((2-chloro-4-(trifluoromethyl)phenyl)amino)-2-oxoethyl)-2-(3,6-dihydro-2H-pyran-4-yl)-5-ethyl-7-oxo-4,7-dihydro-[1,2,4]triazolo[1,5-a]pyrimidin-6-yl)piperazin-1-yl)-2-oxoacetamide]: the pIC50 in assay [1] and in assay [2] was over 7.00 each time.

`CCc1c(N2CCN(C(=O)C(=O)Nc3nccs3)CC2)c(=O)n2nc(C3=CCOCC3)nc2n1CC(=O)Nc1ccc(C(F)(F)F)cc1Cl` [Example 332, 2-(4-(4-(2-((2-Chloro-4-(trifluoromethyl)phenyl)amino)-2-oxoethyl)-2-(3,6-dihydro-2H-pyran-4-yl)-5-ethyl-7-oxo-4,7-dihydro-[1,2,4]triazolo[1,5-a]pyrimidin-6-yl)piperazin-1-yl)-2-oxo-N-(thiazol-2-yl)acetamide]: the pIC50 in assay [1] and in assay [2] was over 7.00 throughout.
